Measurements: patent US9861625B2, “Methods and compositions for treating cancer through inhibition of PI3K” (Duke University, priority 2014, dated 2018)

Assays:
Type in all cases: cell-based
[1] = test system: Ly8 cell lines with stable knockdown of PAK1 expression; experiment: MTT assay in Ly8 cells with shRNA knockdown of PAK1; conditions: on average, P<0.01
Method: Lentiviral pGIPZ constructs containing either a scrambled sequence (non-silencing; cat. no. RHS4346; Open Biosystems) as control, or a hairpin sequence targeting the PAK1 gene (cat. no. RHS4430; Open Biosystems) were mixed with Lentiviral packaging mix (cat. no. TLP4691; Open Biosystems) and transfected into TLA-HEK-293T cells using Arrest-in as a transfection reagent. Virus was harvested 72 hours post-transfection and frozen at −80° C. until use. DLBCL cell lines were infected with virus in the presence of 8 μg/μl of polybrene, using 1×10^5 cells per well in a 6-well plate. The plates containing cells and virus were spun at 700 g for 90 minutes at room temperature. […] Successful knockdown of PAK1 was confirmed by Western blot and quantitative PCR. […]

[2] = test system: RPMI8226; experiment: MTT cell viability assay; conditions: Homo sapiens, RPMI-8226; RPMI8226, Multiple Myeloma, RPMI 10% FBS
From the text: (§1) A total of 60 cell lines representative of different cancer types were obtained from the ATCC and grown and maintained in accordance with the provided guidelines. The cell lines represented the following distinct histologies: mantle cell lymphoma (5 lines: JVM13, Rec1, Mino, JVM2, Jeko); germinal center B-cell derived (“GCB”) DLBCL (19 lines: Farage, BJAB, Ly1, Ly2, Ly7, Ly8, Ly19, HBL2, HT, Karpas422, Pfeiffer, RCK8, RL, Sci-1, Ski, SUDHL4, SUDHL7, Toledo, WSU-NHL); primary mediastinal B-cell lymphoma (“PMBL”) (3 lines: K1106, MEDB1, U2940); Burkitt lymphoma (11 lines: Daudi, CA46, EB1, EB2, EB3, Jijoye, Raji, Ramos, Namwala, BL2, BL41); Hodgkin lymphoma (3 lines: RMPI6666, L1236, L428); activated B-cell derived (“ABC”) DLBCL (6 lines: Ly3, HBL1, TMD8, Ly10, Riva, U2932); multiple myeloma (6 lines: U266, SKMM1, RPMI8226, KMS12, IM9, H929); acute myelogenous leukemia (“AML”) (2 lines: U937, KG1); acute lymphoblastic leukemia (“ALL”) (2 lines: Reh, SR); and T-cell lymphoma (3 lines: Molt4, RPMI8402, Jurkat). The cell lines were tested within six months after resuscitation.
(§2) The 3-(4,5-dimethylthiazol-2-yl)-2,5-diphenyltetrazolium bromide (MTT) cell viability assay was used to determine cell viability in response to drug treatment. Five replicates per concentration tested were carried out in serial dilutions with a total of ten concentrations with a 50% reduction in drug concentration per dilution for each plate. A total of 15 μl of MTT reagent was added to each drug-treated well and incubated for three hours in 37° C. Detergent was added to each drug-treated well and incubated overnight at room temperature without exposure to light. Absorbance was measured at 570 nm using a plate reader from Tecan Group. The IC50 concentration was determined using the publicly available ED50 plus v1.0 software program.

[3] = test system: HBL2; experiment: MTT cell viability assay; conditions: HBL2, GCB DLBCL, RPMI 10% FBS
From the text: as §1, §2

[4] = test system: L428; experiment: MTT cell viability assay; conditions: Homo sapiens, L-428; L428, Hodgkin Lymphoma, RPMI 10% FBS
From the text: as §1, §2

[5] = test system: LY1; experiment: MTT cell viability assay; conditions: LY1, GCB DLBCL, OCI
From the text: as §1, §2

[6] = test system: HBL1; experiment: MTT cell viability assay; conditions: HBL1, ABC DLBCL, RPMI 10% FBS
From the text: as §1, §2

[7] = test system: Jurkat; experiment: MTT cell viability assay; conditions: Homo sapiens, T-cell, RPMI 10% FBS
From the text: as §1, §2

[8] = test system: SR; experiment: MTT cell viability assay; conditions: Homo sapiens, ALL, RPMI 10% FBS
From the text: as §1, §2

[9] = test system: JVM13; experiment: MTT cell viability assay; conditions: JVM13, MantleCellLymphoma, RPMI 10% FBS
From the text: as §1, §2

[10] = test system: U2932; experiment: MTT cell viability assay; conditions: Homo sapiens; U2932, ABC DLBCL, RPMI 10% FBS
From the text: as §1, §2

[11] = test system: RMPI6666; experiment: MTT cell viability assay; conditions: RMPI6666, Hodgkin Lymphoma, RPMI 10% FBS
From the text: as §1, §2

[12] = test system: KMS12; experiment: MTT cell viability assay; conditions: KMS12, Multiple Myeloma, RPMI 10% FBS
From the text: as §1, §2

[13] = test system: RPMI8402; experiment: MTT cell viability assay; conditions: Homo sapiens, RPMI 8402; RPMI8402, T-cell, RPMI 10% FBS
From the text: as §1, §2

[14] = test system: LY8; experiment: MTT cell viability assay; conditions: LY8, GCB DLBCL, OCI
From the text: as §1, §2

[15] = test system: Ski; experiment: MTT cell viability assay; conditions: GCB DLBCL, RPMI 10% FBS
From the text: as §1, §2

[16] = test system: U2940; experiment: MTT cell viability assay; conditions: Homo sapiens, U-2940; U2940, PMBL, RPMI 10% FBS
From the text: as §1, §2

[17] = test system: JVM2; experiment: MTT cell viability assay; conditions: Homo sapiens, JVM-2; JVM2, MantleCellLymphoma, RPMI 10% FBS
From the text: as §1, §2

[18] = test system: LY2; experiment: MTT cell viability assay; conditions: LY2, GCB DLBCL, OCI
From the text: as §1, §2

[19] = test system: Toledo; experiment: MTT cell viability assay; conditions: Homo sapiens, GCB DLBCL, RPMI 10% FBS
From the text: as §1, §2

[20] = test system: SKMM1; experiment: MTT cell viability assay; conditions: SKMM1, Multiple Myeloma, RPMI 10% FBS
From the text: as §1, §2

[21] = test system: U266; experiment: MTT cell viability assay; conditions: Homo sapiens, U-266; U266, Multiple Myeloma, RPMI 15% FBS
From the text: as §1, §2

[22] = test system: Riva; experiment: MTT cell viability assay; conditions: ABC DLBCL, RPMI 10% FBS
From the text: as §1, §2

[23] = test system: WSUNHL; experiment: MTT cell viability assay; conditions: Homo sapiens, WSU-NHL, GCB DLBCL, RPMI 10% FBS
From the text: as §1, §2

[24] = test system: HT; experiment: MTT cell viability assay; conditions: Homo sapiens, GCB DLBCL, RPMI 10% FBS
From the text: as §1, §2

[25] = test system: Namwala; experiment: MTT cell viability assay; conditions: Burkitt Lymphoma, RPMI 10% FBS
From the text: as §1, §2

Q: Which results are given for `Cn1c(=O)n(-c2ccc(C(C)(C)C#N)cc2)c2c3cc(-c4cnc5ccccc5c4)ccc3ncc21` [BEZ235]?
A: sensitivity of the three shRNA-modified cell lines versus unmodified Ly8 cells [1]: 3.5 fold; IC50 [2]: 56.9 nM; IC50 [3]: 1560 nM; IC50 [4]: 14.6 nM; IC50 [5]: 16.4 nM; IC50 [6]: 71.7 nM; IC50 [7]: 33.2 nM; IC50 [8]: 64.2 nM; IC50 [9]: 869 nM; IC50 [10]: 96.1 nM; IC50 [11]: 52 nM; IC50 [12]: 23.1 nM; IC50 [13]: 220 nM; IC50 [14]: 694 nM; IC50 [15]: 25 nM; IC50 [16]: 35.4 nM; IC50 [17]: 491 nM; IC50 [18]: 29.7 nM; IC50 [19]: 20.4 nM; IC50 [20]: 48.4 nM; IC50 [21]: 167 nM; IC50 [22]: 517 nM; IC50 [23]: 16.2 nM; IC50 [24]: 2610 nM; IC50 [25]: 32.1 nM

Q: Which IC50 [2] does the source give for `Nc1cc(C(F)(F)F)c(-c2cc(N3CCOCC3)nc(N3CCOCC3)n2)cn1` [BKM120] here?
A: 674 nM

Q: And the IC50 [3]?
A: 1420 nM

Q: What about the IC50 [4] of the same compound?
A: 1870 nM

Q: And the IC50 [5]?
A: 382 nM

Q: And the IC50 [6]?
A: 1670 nM

Q: And the IC50 [7]?
A: 1190 nM

Q: What about the IC50 [8] of the same compound?
A: 807 nM

Q: What about the IC50 [9] of the same compound?
A: 933 nM

Q: And the IC50 [10]?
A: 5360 nM

Q: What about the IC50 [11] of the same compound?
A: 3300 nM

Q: What about the IC50 [12] of the same compound?
A: 954 nM

Q: And the IC50 [13]?
A: 1220 nM

Q: And the IC50 [14]?
A: 1370 nM

Q: And the IC50 [15]?
A: 236 nM

Q: What about the IC50 [16] of the same compound?
A: 4450 nM

Q: What about the IC50 [17] of the same compound?
A: 1390 nM

Q: And the IC50 [18]?
A: 2220 nM

Q: And the IC50 [19]?
A: 2010 nM

Q: What about the IC50 [20] of the same compound?
A: 826 nM

Q: And the IC50 [21]?
A: 5600 nM

Q: And the IC50 [22]?
A: 476 nM

Q: What about the IC50 [23] of the same compound?
A: 1260 nM

Q: And the IC50 [24]?
A: 435 nM

Q: And the IC50 [25]?
A: 714 nM
